Laboratory results as given in PMC8421406, “C9orf72-derived arginine-rich poly-dipeptides impede phase modifiers” (Nature Communications, 2021).
Where no end group is shown, it is not given here. MBP = maltose-binding protein; HA = HA epitope tag

Experiments:
[1] = tested on: MBP:FUS (full-length FUS droplets) / Kapβ2; experiment: Turbidity assay of FUS droplet formation (OD 395 nm); type: biochemical; details: equimolar poly-dipeptide and Kapβ2 (8 μM)
MBP = details: GST:PR18 on beads
Procedure: (§1) Four micrograms of GST proteins were immobilized on 30 μL of beads. […] Unbound proteins were washed three times with the buffer. Bound proteins and unbound proteins were separated by SDS-polyacrylamide gel electrophoresis and stained with Coomassie Brilliant Blue.

EGFP = details: GST:PR18 on beads
Procedure: as §1

Kapβ2 [2] = experiment: Pull-down (on-column) binding assay, Kapβ2; details: purified recombinant proteins, 20 mM HEPES pH 7.4, 150 mM NaCl, equal molar, 20–30 min
Description: (§2) Unbound proteins were washed three times with the buffer.

Lysozyme = experiment: Pull-down binding assay, Lysozyme control; details: GST:PR18 on beads
Description: as §2

BSA = experiment: Pull-down binding assay, BSA control; details: GST:PR18 on beads
Description: as §2

endogenous Kapβ2 = experiment: Immunoprecipitation from HeLa cells; type: binding; details: expressed in HeLa cells; cytosol extract, Streptavidin Mag Sepharose
Procedure: The pcDNA5/FRT/TO-HA:SBP plasmid was generated by inserting the PCR-amplified HA:SBP sequence into the pcDNA5/FRT/TO vector (Thermo Fisher Scientific) between the HindIII and BamHI sites. The HA:SBP:GFP:PR20:HA plasmid was constructed by ligating the GFP:PR20:HA sequence into the pcDNA5/FRT/TO-HA-SBP between the EcoRV and XhoI sites. The HA:SBP:Kapβ2 plasmid was constructed by ligating the Kapβ2 sequence into the pcDNA5/FRT/TO-HA:SBP between the BamHI and NotI sites. HeLa cells were cultured in Dulbecco’s modified Eagle medium/10% fetal bovine serum at 37 °C with 5% CO2. Cells were transfected with plasmids using Lipofectamine 3000 (Thermo Fisher Scientific) according to the manufacturer’s instructions. HeLa cytosol extracts were prepared by Cytoplasmic Extraction buffer (CE; 10 mM HEPES pH 7.9, 60 mM KCl, 1 mM EDTA, 0.075% NP40, 1 mM DTT, and cOmplete™ EDTA-free protease inhibitor [Sigma-Aldrich]) for 10 min on ice and then separated from nuclear by centrifugation at 500 × g for 10 min. The resultant extracts were cleared by centrifugation at 20,400 × g for 10 min. The supernatant containing the HeLa cytosol extracts were mixed with the Streptavidin Mag Sepharose (GE Healthcare) and rotated at 4 °C overnight. The beads were finally washed five times with CE buffer. The anti-Kapβ2 (sc-166127, 1 : 1000) antibody was obtained from Santa Cruz Biotechnology. […]

Kapβ2 [3] = experiment: Isothermal titration calorimetry; type: binding; details: ITC, Supplementary Table 1 (not shown)
Procedure: ITC experiments were performed with a Malvern iTC200 calorimeter (Malvern Instruments). […] ITC experiments were performed at 25 °C with 19 rounds of 2 μL injections. Data were analyzed using Origin software.

Kapβ2 [4] = experiment: Analytical ultracentrifugation; type: binding; details: 28 µM each, 25 °C, 20 mM HEPES pH 7.4, 150 mM NaCl
Procedure: AUC measurements were conducted with ProteomeLab XL-I (Beckman Coulter). […] The solutions were filled in 1.5 mm path-length titanium cells (Nanolytics). The measurements were performed with Rayleigh-interference optics at rotor speed of 125,000 × g (at 70 mm radius). The temperature was set at 25 °C. The weight concentration distribution as a function of sedimentation coefficient c(s20,w) and frictional ratio f/f0 were computed with SEDFIT[49] and Igor Pro software. The sedimentation coefficient was normalized to be the value at 20 °C in pure water s20,w. The molecular weight M was calculated with the corresponding peak value of s20,w and f/f0[49].

Importinβ1 = experiment: Pull-down binding assay, GST:Importinβ1; details: GST:Importinβ1 on beads
Description: as §2

Importinα = experiment: Pull-down binding assay, GST:Importinα; details: GST:Importinα on beads
Description: as §2

GA20
Inhibition of the ability of Kapβ2 to melt FUS droplets (turbidity) [1]: did not

GST:PR18: Glutathione S-transferase fusion of PR18 (PRPRPRPRPRPRPRPRPRPRPRPRPRPRPRPRPRPR; also: GST fusion, end not given here)
Binding to MBP (pull-down) (MBP): no interaction
Binding to EGFP (pull-down) (EGFP): no interaction
Binding to Kapβ2 (pull-down) (Kapβ2 [2]): bound Kapβ2
Binding to Lysozyme (pull-down) (Lysozyme): no interaction
Binding to BSA (pull-down) (BSA): no interaction

HA:SBP:GFP:PR20:HA: PR20 fusion expressed from plasmid in HeLa cells ({HA-SBP-GFP}-PRPRPRPRPRPRPRPRPRPRPRPRPRPRPRPRPRPRPRPR-{HA}; not fully specified)
Co-immunoprecipitation of endogenous Kapβ2 (endogenous Kapβ2): interaction between endogenous Kapβ2 and HA:SBP:GFP:PR20:HA

MBP:PR8: maltose-binding protein fusion of 8 repeats of Pro-Arg ({MBP}-PRPRPRPRPRPRPRPR)
Binding to Kapβ2 (pull-down) (Kapβ2 [2]): did not

MBP:PR18: maltose-binding protein fusion of 18 repeats of Pro-Arg (PRPRPRPRPRPRPRPRPRPRPRPRPRPRPRPRPRPR; also: MBP fusion, end not given here)
Relative binding strength to Kapβ2 vs full-length FUS (Kapβ2 [3]): bound Kapβ2 more strongly than full-length FUS does
Complex formation with Kapβ2 (AUC) (Kapβ2 [4]): complex formation
Binding to Importinβ1 (pull-down) (Importinβ1): interactions
Binding to Kapβ2 (pull-down) (Kapβ2 [2]): bound Kapβ2
Binding to Importinα (pull-down) (Importinα): interactions
